{
  "source": "patent US20030165475A1",
  "about": "“Non-lethal methods for conditioning a recipient for bone marrow transplantation” (priority 1993, published 2003)",
  "key": {"[1]": {"system": "baboons", "method": "In addition-to TBI, TLI was also tested in conditioning recipients for bone marrow transplantation. As a single dose, TLI was simply a modified form of TBI in that the method of delivery was the same, except that only certain parts of the recipient's body was exposed to the irradiation. […] In the following study, baboons were treated with a single dose of 7.5 Gy of TLI at day 0 followed by transfer of allogeneic baboon bone marrow cells with at least one MHC disparity. […] Xenogeneic transplantation with human cells was also performed in baboons conditioned with TLI."}, "[2]": {"system": "B10 mice", "type": "in vivo, mouse", "method": "Briefly, peripheral blood was collected into heparinized plastic serum vials. […] (400g×20 minutes). […] Lymphocytes were stained for class I antigens with anti-H-2^b-FITC (Pharmingen; San Diego, Calif.), anti-H-2^k-FITC (Pharmingen), and anti-H-2^d-FITC (Pharmingen) monoclonal antibodies (Mab) for 45 minutes at 4° C. Lineage typing was performed by two color flow cytometry using anti-B-cell (B220-FITC, Pharmingen), anti-T cell (αβ-TCR-PE, CD4-FITC, CD8-PE, Pharmingen), anti-natural killer cell (NK1.1-PE, Pharmingen), anti-granulocyte (GR-1-FITC, Pharmingen), and anti-monocyte/macrophage (MAC-1-FITC, Boehringer Mannheim; Indianapolis, Id.) Mab. […] Analyses were performed using forward and side scatter characteristics for the lymphoid and myeloid gates.\nTo examine whether ALG would enhance the engraftment of allogeneic bone marrow in the established radiation-based model, recipient B10 mice received one of three conditioning approaches prior to transplantation with 40×10^6 or 15×10^6 BALB/c bone marrow cells: 70 mg/kg i.v. ALG given three,days prior to bone marrow transplantation (Group 1); 5Gy of TBI on the day of transplantation (Group 2); or both ALG and TBI as administered in groups 1 and 2 (Group 3). The timing of ALG was chosen to assure maximum immunosuppression at the time of allogeneic bone marrow infusion (Wood et al., 1971, Trans Proc 3(l):676). As in previous analysis, recipients were peripheral blood leukocyte (PBL)-typed for evidence of allogeneic engraftment 2 months following bone marrow transplantation.\nTo examine the influence of donor cell number on the ability of ALG and TBI to enhance alloengraftment, dose-titration studies were performed in which the above established radiation plus ALG conditioning were utilized. Recipients were conditioned as above prior to receiving 40×10^6, 15×10^6, or 5×10^6 BALB/c bone marrow cells.\nAnimals were PBL typed 2 months following reconstitution.\nTo examine the influence of timing of radiation on the engraftment of allogeneic bone marrow, recipient B10 mice were irradiated with 5Gy TBI one week prior to transplantation with 40×10^6 BALB/c allogeneic bone marrow cells.\nB10 mice were treated with ALG at 2 mg/mouse i.v. at day −3 before bone marrow transplantation."}},
  "note": "Values joined by “and” are separate entries in the source; they are usually repeats but may differ in a detail not shown here. Equal entries are not always repeated.",
  "data": [
    {"smiles": "O=P1(N(CCCl)CCCl)NCCCO1", "note": "(centres unmarked) [CyP, cyclophosphamide]", "values": [
      {"measurement": "treated animals with stable donor cell engraftment", "setting": "[1]; 7.5 Gy TLI + single dose CyP 50 mg/kg at day +2", "result": "about 50%"},
      {"measurement": "duration of stable engraftment", "setting": "[1]; 7.5 Gy TLI + two doses of CyP", "result": "≥ 36", "unit": "weeks"},
      {"measurement": "engraftment of allogeneic bone marrow", "setting": "[2]; 5Gy TBI + CyP 200 mg/kg i.p. 2 days later, 40 × 10^6 B10.BR or BALB/c → B10, 2 months", "result": "nearly all recipients"},
      {"measurement": "degree of donor chimerism", "setting": "[2]; 5Gy TBI + CyP 200 mg/kg i.p. 2 days later, all chimeras", "result": "> 90", "unit": "%"},
      {"measurement": "recipient mice engrafted", "setting": "[2]; 5Gy TBI and CyP, regardless of donor strain or CyP before or shortly after TBI (n=15)", "result": "~75", "unit": "%"},
      {"measurement": "% BALB/c lymphoid cells", "setting": "[2]; 5 Gy TBI-based regimen, BALB/c → B10, individual animals, flow cytometry, 2 months", "result": "99% and 98% and 91% and 92%"},
      {"measurement": "engraftment", "setting": "[2]; CyP 200 mg/kg i.p. alone, no TBI", "result": "failed to engraft"},
      {"measurement": "allogeneic donor chimerism", "setting": "[2]; chimeras after 5Gy TBI and CyP", "result": "≥ 90", "unit": "%"}
    ]}
  ]
}
